From US20080292619A1, “Pharmaceutical Composition Containing Meltrin Antagonist” (MOCHIDA PHARMACEUTICAL CO., LTD., priority 2004, published 2008)
In the oligonucleotide strings, read from the 5' end, every base follows the letter of its sugar. An asterisk marks phosphorothioate; unmarked linkages are phosphodiester. Other units and linkages are bracketed, terminal groups are in braces. A string of capitals states the bases alone. d = 2'-deoxy (DNA)

Tested on: human meltrin α RNA
Experiment: Suppression of human meltrin α expression by antisense compound in RD cell (real time PCR)
Format: cell-based
Details: RD cell, corrected by GAPDH
Experimental: First, RD cell (ATCC) was suspended in DMEM containing 10% fetal bovine serum (FBS, SIGMA), and the suspension was inoculated in 6 well culture plate at 2.5×10^5 cells/well/2 mL. After incubating overnight at 37° C. in the presence of 5% CO2, the cells were washed twice with serum-free DMEM, and Opti-MEM medium (GIBCO) was added at 800 μL/well.
Gene transfection reagent Lipofectin (Invitrogen) was diluted with Opti-MEM to 20 μg/mL, and the dilution was allowed to stand at room temperature for 30 minutes. Next, the antisense oligodeoxynucleotide synthesized as described above was heated at 90° C. for 3 minutes, and after quenching on ice, diluted with Opti-MEM to a concentration 10 times higher than the final concentration. Equal amounts of the Lipofectin in Opti-MEM and the antisense oligo DNA in Opti-MEM were mixed, and the mixture was incubated at room temperature for 15 minutes and added to 6 well plate at 200 μL/well.
The culture was incubated at 37° C. for 4 hours in the presence of 5% CO2, and the culture supernatant containing the Lipofectin was removed. The cells were washed twice with serum-free DMEM, and after adding 1 mL/well of Opti-MEM and incubating for 18 hours at 37° C. in the presence of 5% CO2, the cells were subjected to the measurement of the level of expression of meltrin α RNA.
After the washing, RNA was isolated from the cell by using RNA isolation kit (RNeasy Micro Kit, QIAGEN) according to the protocol of the kit, and RNA concentration was determined by measuring absorbance at a wavelength of 260 nm with a spectrophotometer (Nano prop, LMS Co., Ltd.) (1OD=40 μg/mL). After the quantitation, the RNA was prepared to a concentration of 0.1 μg/μL by using DEPC-treated water.
0.35 μg of the isolated RNA, and 3.5 μL of 10× TaqMan buffer, 7.7 μL of 25 mM MgCl2, 7.0 μL of 2.5 mM each dNTP Mix, 1.75 μL of 50 μM Random Hexamers, 0.7 μL of 20 U/μL RNase inhibitor, and 0.9 μL of 50 U/μL MultiScribe Reverse Transcriptase (all purchased from Applied Biosystems) were mixed, and water was added to make up the total volume to 35 μL. This solution was maintained at 25° C. for 10 minutes, at 48° C. for 30 minutes, and at 95° C. for 5 minutes, and reverse transcription was conducted to synthesize cDNA.
A solution in total volume of 20 μL containing 10 μL of TaqMan Universal PCR Master Mix, 0.4 μL of 10 μM TaqMan MGB Probe (sequence 5′FAM-caccgaaggacaatccca-MGB-3′: Applied Biosystems), 0.1 μL of 50 μM Forward primer (sequence ggaagccgccagattcct) for detecting meltrin α, 0.1 μL of 50 μM Reverse primer (sequence […]) for detecting meltrin α (all purchased from Sigma-Genosys), 5 μL of the cDNA solution of (3), and 4.4 μL of water was prepared, and after maintaining the solution at 50° C. for 2 minutes and at 95° C. for 10 minutes, PCR was conducted by repeating 40 cycles of 95° C. for 15 seconds and 60° C. for 1 minute in ABI Prism 7000.
The amount of the human meltrin α RNA was measured by conducting real time PCR by using the plasmid containing the cDNA coding for the human meltrin α for the template to generate the standard curve, and calculating RNA copy number of the meltrin α in each sample. The level of expression of GAPDH was also determined by using a primer and probe set for real time PCR of human GAPDH (Pre-Developed TaqMan Assay Reagents Human GAPDH (20×) (Cat# 4310884E, Applied Biosystems).
The results of the real time PCR of the meltrin α was corrected by the level of expression of the GAPDH to calculate the suppression rate. […]

Row | Substance | suppression rate of expression, 50 nM | suppression rate of expression, 200 nM
1 | H147: tcctggggtcctggccaagg (dT*dC*dC*dT*dG*dG*dG*dG*dT*dC*dC*dT*dG*dG*dC*dC*dA*dA*dG*dG; antisense) | ++ (“++” when the suppression rate was at least 50%) | +++ (“+++” when the suppression rate was at least 70%)
2 | H133: ggtgggtaggaatctggcgg (GGTGGGTAGGAATCTGGCGG; antisense; DNA, all phosphorothioate, methylation of C not given here) | +++ (“+++” when the suppression rate was at least 70%) | +++ (“+++” when the suppression rate was at least 70%)
3 | H133 + 1: cggtgggtaggaatctggcg (CGGTGGGTAGGAATCTGGCG; antisense; DNA, all phosphorothioate, methylation of C not given here) | ++ (“++” when the suppression rate was at least 50%) | –
4 | H037: ataagtcccctgagaccaga (ATAAGTCCCCTGAGACCAGA; antisense; DNA, all phosphorothioate, methylation of C not given here) | – | + (“+” when the suppression rate was at least 30%)
5 | H029: tggcaatgagaccttcattt (TGGCAATGAGACCTTCATTT; antisense; DNA, all phosphorothioate, methylation of C not given here) | – | + (“+” when the suppression rate was at least 30%)
6 | H082: tcctctggctccccacagtc (dT*dC*dC*dT*dC*dT*dG*dG*dC*dT*dC*dC*dC*dC*dA*dC*dA*dG*dT*dC; antisense) | – | + (“+” when the suppression rate was at least 30%)
7 | H146 + 10: ctggccaaggcatgagtgag (dC*dT*dG*dG*dC*dC*dA*dA*dG*dG*dC*dA*dT*dG*dA*dG*dT*dG*dA*dG; antisense) | + (“+” when the suppression rate was at least 30%) | –
8 | H002: actgtccgagttggcccggg (ACTGTCCGAGTTGGCCCGGG; antisense; DNA, all phosphorothioate, methylation of C not given here) | – | ++ (“++” when the suppression rate was at least 50%)
9 | H144 + 19: tggccagaggatctgcaggc (TGGCCAGAGGATCTGCAGGC; antisense; DNA, all phosphorothioate, methylation of C not given here) | +++ (“+++” when the suppression rate was at least 70%) | –
10 | H028: ctttccagatttatgatcag (CTTTCCAGATTTATGATCAG; antisense; DNA, all phosphorothioate, methylation of C not given here) | – | + (“+” when the suppression rate was at least 30%)
11 | H058: tcatggaggctggtgaatgg (dT*dC*dA*dT*dG*dG*dA*dG*dG*dC*dT*dG*dG*dT*dG*dA*dA*dT*dG*dG; antisense) | – | ++ (“++” when the suppression rate was at least 50%)
12 | H117: gcagtggcagttcttcctgt (GCAGTGGCAGTTCTTCCTGT; antisense; DNA, all phosphorothioate, methylation of C not given here) | – | + (“+” when the suppression rate was at least 30%)
13 | H225: aagacagaggcatcatggca (dA*dA*dG*dA*dC*dA*dG*dA*dG*dG*dC*dA*dT*dC*dA*dT*dG*dG*dC*dA; antisense) | – | +++ (“+++” when the suppression rate was at least 70%)
14 | H104: gccggctggcacctccttga (dG*dC*dC*dG*dG*dC*dT*dG*dG*dC*dA*dC*dC*dT*dC*dC*dT*dT*dG*dA; antisense) | – | +++ (“+++” when the suppression rate was at least 70%)
15 | H177: gcctggacctgaagcccctt (dG*dC*dC*dT*dG*dG*dA*dC*dC*dT*dG*dA*dA*dG*dC*dC*dC*dC*dT*dT; antisense) | – | +++ (“+++” when the suppression rate was at least 70%)
16 | H084: cagggtacaggtggtggcat (dC*dA*dG*dG*dG*dT*dA*dC*dA*dG*dG*dT*dG*dG*dT*dG*dG*dC*dA*dT; antisense) | – | ++ (“++” when the suppression rate was at least 50%)
17 | H132 + 19: gtgggtaggaatctggcggc (GTGGGTAGGAATCTGGCGGC; antisense; DNA, all phosphorothioate, methylation of C not given here) | + (“+” when the suppression rate was at least 30%) | –
18 | H061: agctgcgcattgtcatggga (dA*dG*dC*dT*dG*dC*dG*dC*dA*dT*dT*dG*dT*dC*dA*dT*dG*dG*dG*dA; antisense) | – | + (“+” when the suppression rate was at least 30%)
19 | H107: ggcctccttgctgcaggggg (dG*dG*dC*dC*dT*dC*dC*dT*dT*dG*dC*dT*dG*dC*dA*dG*dG*dG*dG*dG; antisense) | – | ++ (“++” when the suppression rate was at least 50%)
20 | H237: gtgtcacgtgtttagtttat (DNA dG*dT*dG*dT*dC*dA*dC*dG*dT*dG*dT*dT*dT*dA*dG*dT*dT*dT*dA*dT; antisense) | – | + (“+” when the suppression rate was at least 30%)
21 | H105: ggcattggtaccaatgactg (dG*dG*dC*dA*dT*dT*dG*dG*dT*dA*dC*dC*dA*dA*dT*dG*dA*dC*dT*dG; antisense) | – | + (“+” when the suppression rate was at least 30%)
22 | H140: ggacgctaggtgcacgtggg (GGACGCTAGGTGCACGTGGG; antisense; DNA, all phosphorothioate, methylation of C not given here) | + (“+” when the suppression rate was at least 30%) | +++ (“+++” when the suppression rate was at least 70%)
23 | H170: ccttgatcagaaagcaaaca (dC*dC*dT*dT*dG*dA*dT*dC*dA*dG*dA*dA*dA*dG*dC*dA*dA*dA*dC*dA; antisense) | – | + (“+” when the suppression rate was at least 30%)
24 | H021: tcttccttggttccataagc (TCTTCCTTGGTTCCATAAGC; antisense; DNA, all phosphorothioate, methylation of C not given here) | – | + (“+” when the suppression rate was at least 30%)
25 | H133 + 4: cttcggtgggtaggaatctg (CTTCGGTGGGTAGGAATCTG; antisense; DNA, all phosphorothioate, methylation of C not given here) | ++ (“++” when the suppression rate was at least 50%) | –
26 | H049: cggttgtctgccacgatcac (dC*dG*dG*dT*dT*dG*dT*dC*dT*dG*dC*dC*dA*dC*dG*dA*dT*dC*dA*dC; antisense) | – | + (“+” when the suppression rate was at least 30%)
27 | H137 + 2: gggctgagggacattcaggc (GGGCTGAGGGACATTCAGGC; antisense; DNA, all phosphorothioate, methylation of C not given here) | +++ (“+++” when the suppression rate was at least 70%) | –
28 | H240: acagatgcatgctatacgag (DNA dA*dC*dA*dG*dA*dT*dG*dC*dA*dT*dG*dC*dT*dA*dT*dA*dC*dG*dA*dG; antisense) | – | ++ (“++” when the suppression rate was at least 50%)
